Experiments:
[1] = Antioxidant activity by measuring oxygen radical absorbance capacity-fluorescein values; format: functional
[2] = biological target: T1, Amyloid-beta precursor protein (Homo sapiens, UniProt P05067); experiment: Inhibition of amyloid beta (1 to 42) (unknown origin) self aggregation at 50 uM relative to control
[3] = biological target: T1, Amyloid-beta precursor protein; experiment: Inhibition of amyloid beta (1 to 42) (unknown origin) self aggregation assessed as disaggregation
[4] = biological target: T1, Amyloid-beta precursor protein; experiment: Inhibition of amyloid beta (1 to 42) (unknown origin) self aggregation assessed as disaggregation relative to control; set-up: concentration or dose not given beside the values; conditions: concentration not given here
[5] = biological target: T1, Amyloid-beta precursor protein; experiment: Inhibition of amyloid beta (1 to 42) (unknown origin) self aggregation
BV-2 = experiment: Antiinflammatory activity in LPS induced mouse BV-2 cells decrease in release of […] at 5 uM by […] (reference value: 100%); format: functional

T1 sequence (P05067 whole entry): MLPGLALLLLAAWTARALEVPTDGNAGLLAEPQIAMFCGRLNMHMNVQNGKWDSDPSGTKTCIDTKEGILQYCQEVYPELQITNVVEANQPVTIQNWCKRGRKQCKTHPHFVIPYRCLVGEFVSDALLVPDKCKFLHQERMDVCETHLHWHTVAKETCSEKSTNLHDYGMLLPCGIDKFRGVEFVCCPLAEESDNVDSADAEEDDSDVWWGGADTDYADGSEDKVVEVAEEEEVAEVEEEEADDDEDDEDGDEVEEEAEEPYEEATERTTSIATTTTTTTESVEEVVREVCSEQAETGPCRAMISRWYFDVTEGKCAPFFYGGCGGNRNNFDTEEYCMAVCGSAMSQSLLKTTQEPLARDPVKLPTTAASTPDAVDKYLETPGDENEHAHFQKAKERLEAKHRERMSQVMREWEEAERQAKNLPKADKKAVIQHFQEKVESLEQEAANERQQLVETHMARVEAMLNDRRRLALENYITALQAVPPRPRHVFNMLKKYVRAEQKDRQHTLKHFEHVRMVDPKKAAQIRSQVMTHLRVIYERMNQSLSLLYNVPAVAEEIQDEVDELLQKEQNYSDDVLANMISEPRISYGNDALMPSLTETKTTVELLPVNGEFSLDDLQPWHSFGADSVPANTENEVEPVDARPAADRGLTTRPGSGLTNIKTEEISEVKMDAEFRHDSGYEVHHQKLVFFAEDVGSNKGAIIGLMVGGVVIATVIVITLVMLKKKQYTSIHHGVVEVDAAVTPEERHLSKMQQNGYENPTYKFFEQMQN

Structure (SMILES): Cc1c(C)c2c(c(C)c1O)CCC(C)(C(=O)O)O2 (stereo not drawn)
- Activity index [1]: 1

Structure (SMILES): O=c1ccoc(/C=C/c2ccc(N3CCOCC3)cc2)c1O
- inhibition [2]: 50.4%
- Activity index [1]: 2.25
- IC50 [3]: 23.9 µM
- inhibition [4]: 65.8%
- IC50 [5]: 49.4 µM
- Nitric oxide release (% of LPS control) (BV-2): 100.11%

Structure (SMILES): O=c1ccoc(/C=C/c2ccccc2)c1O
- inhibition [2]: 7.59%
- Activity index [1]: 0.52
- inhibition [4]: 8.21%
- Nitric oxide release (% of LPS control) (BV-2): 78.21%

Structure (SMILES): COc1ccc(/C=C/c2occc(=O)c2O)cc1OC
- inhibition [2]: 10.4%
- Activity index [1]: 1.73
- inhibition [4]: 20.6%
- Nitric oxide release (% of LPS control) (BV-2): 97.14%

Structure (SMILES): N#Cc1ccc(/C=C/c2occc(=O)c2O)cc1
- inhibition [2]: 16.8%
- Activity index [1]: 1.9
- inhibition [4]: 17%
- Nitric oxide release (% of LPS control) (BV-2): 88%

Structure (SMILES): COc1cccc(/C=C/c2occc(=O)c2O)c1
- inhibition [2]: 13.6%
- Activity index [1]: 0.8
- inhibition [4]: 42.8%
- Nitric oxide release (% of LPS control) (BV-2): 72.79%

Structure (SMILES): COC(=O)c1ccc(/C=C/c2occc(=O)c2O)cc1
- inhibition [2]: 33.7%
- Activity index [1]: 0.25
- inhibition [4]: 27.6%
- Nitric oxide release (% of LPS control) (BV-2): 71.82%

Structure (SMILES): COc1ccccc1/C=C/c1occc(=O)c1O
- inhibition [2]: 23.5%
- Activity index [1]: 0.79
- inhibition [4]: 30.9%
- Nitric oxide release (% of LPS control) (BV-2): 77.3%

Structure (SMILES): O=c1ccoc(/C=C/c2cccc(Cl)c2)c1O
- inhibition [2]: 23.2%
- Activity index [1]: 1.21
- inhibition [4]: 28.2%
- Nitric oxide release (% of LPS control) (BV-2): 88.17%

Structure (SMILES): CN(C)c1ccc(/C=C/c2occc(=O)c2O)cc1
- inhibition [2]: 53.7%
- Activity index [1]: 0.87
- IC50 [3]: 42.4 µM
- inhibition [4]: 47.6%
- IC50 [5]: 47.2 µM
- Nitric oxide release (% of LPS control) (BV-2): 92.3%

Structure (SMILES): O=c1ccoc(/C=C/c2ccc(N3CCCCC3)cc2)c1O
- inhibition [2]: 59.6%
- Activity index [1]: 2.21
- IC50 [3]: 27.2 µM
- inhibition [4]: 60.5%
- IC50 [5]: 33.4 µM
- Nitric oxide release (% of LPS control) (BV-2): 100.49%

Structure (SMILES): O=c1ccocc1O
- Activity index [1]: 1.75
- Nitric oxide release (% of LPS control) (BV-2): 93.85%

Structure (SMILES): CC(C)(C)c1ccc(/C=C/c2occc(=O)c2O)cc1
- inhibition [2]: 37.7%
- Activity index [1]: 0.07
- inhibition [4]: 31.6%
- Nitric oxide release (% of LPS control) (BV-2): 94.03%

Structure (SMILES): O=c1ccoc(/C=C/c2ccc(N3CCSCC3)cc2)c1O
- inhibition [2]: 53.9%
- Activity index [1]: 1.48
- IC50 [3]: 28.5 µM
- inhibition [4]: 62.8%
- IC50 [5]: 46.8 µM
- Nitric oxide release (% of LPS control) (BV-2): 98.13%

Structure (SMILES): O=c1ccoc(/C=C/c2ccc(Cl)cc2)c1O
- inhibition [2]: 30.4%
- Activity index [1]: 1.02
- inhibition [4]: 26.9%
- Nitric oxide release (% of LPS control) (BV-2): 97.73%

Structure (SMILES): O=c1ccoc(/C=C/c2ccc(C(F)(F)F)cc2)c1O
- inhibition [2]: 30.5%
- Activity index [1]: 0.12
- inhibition [4]: 25.9%
- Nitric oxide release (% of LPS control) (BV-2): 88.82%

Structure (SMILES): COc1cc(/C=C/c2occc(=O)c2O)ccc1O
- inhibition [2]: 48.5%
- Activity index [1]: 1.96
- inhibition [4]: 42.9%
- Nitric oxide release (% of LPS control) (BV-2): 90.67%

Structure (SMILES): O=c1ccoc(/C=C/c2ccccc2Cl)c1O
- inhibition [2]: 27.7%
- Activity index [1]: 1.13
- inhibition [4]: 19.2%
- Nitric oxide release (% of LPS control) (BV-2): 54.58%

Structure (SMILES): O=c1ccoc(/C=C/c2cccc(F)c2)c1O
- inhibition [2]: 24.2%
- Activity index [1]: 1.55
- inhibition [4]: 18.5%
- Nitric oxide release (% of LPS control) (BV-2): 71.55%

Structure (SMILES): O=c1ccoc(/C=C/c2ccc([N+](=O)[O-])cc2)c1O
- inhibition [2]: 56.8%
- Activity index [1]: 0.79
- IC50 [3]: 26.3 µM
- inhibition [4]: 62.8%
- IC50 [5]: 38.2 µM
- Nitric oxide release (% of LPS control) (BV-2): 88.99%

Structure (SMILES): O=c1ccoc(/C=C/c2ccccc2F)c1O
- inhibition [2]: 19.9%
- Activity index [1]: 1.49
- inhibition [4]: 12.6%
- Nitric oxide release (% of LPS control) (BV-2): 56.97%

Structure (SMILES): COc1ccc(/C=C/c2occc(=O)c2O)cc1
- inhibition [2]: 34%
- Activity index [1]: 0.75
- inhibition [4]: 39%
- Nitric oxide release (% of LPS control) (BV-2): 91.49%

Structure (SMILES): O=c1ccoc(/C=C/c2ccc(-c3ccccc3)cc2)c1O
- inhibition [2]: 52%
- Activity index [1]: 0.4
- inhibition [4]: 46.7%
- Nitric oxide release (% of LPS control) (BV-2): 87.38%

Structure (SMILES): CN1CCN(c2ccc(/C=C/c3occc(=O)c3O)cc2)CC1
- inhibition [2]: 30.6%
- Activity index [1]: 2.33
- inhibition [4]: 56.1%
- Nitric oxide release (% of LPS control) (BV-2): 96.04%

Structure (SMILES): Oc1ccc(/C=C/c2cc(O)cc(O)c2)cc1 [RESVERATROL]
- inhibition [2]: 73.2%
- Nitric oxide release (% of LPS control) (BV-2): 86.97%

Structure (SMILES): O=c1ccoc(/C=C/c2ccc(F)c(O)c2)c1O
- inhibition [2]: 23.8%
- Activity index [1]: 3.19
- inhibition [4]: 24%
- Nitric oxide release (% of LPS control) (BV-2): 93.87%

Structure (SMILES): O=c1ccoc(/C=C/c2ccc(O)cc2)c1O
- inhibition [2]: 36.7%
- Activity index [1]: 2.79
- inhibition [4]: 29.6%
- Nitric oxide release (% of LPS control) (BV-2): 86.81%

Structure (SMILES): O=c1ccoc(/C=C/c2ccc3ccccc3c2)c1O
- inhibition [2]: 50.6%
- Activity index [1]: 1.38
- inhibition [4]: 45.9%
- Nitric oxide release (% of LPS control) (BV-2): 102.37%

Structure (SMILES): O=c1ccoc(/C=C/c2ccc(O)c(F)c2)c1O
- inhibition [2]: 36.1%
- Activity index [1]: 2.78
- inhibition [4]: 32.2%
- Nitric oxide release (% of LPS control) (BV-2): 86.66%

Structure (SMILES): COc1ccc(/C=C/c2occc(=O)c2O)cc1O
- inhibition [2]: 57.4%
- Activity index [1]: 1.62
- IC50 [3]: 43.2 µM
- inhibition [4]: 48.9%
- IC50 [5]: 43.7 µM
- Nitric oxide release (% of LPS control) (BV-2): 90.08%

Structure (SMILES): O=c1ccoc(/C=C/c2ccc(F)cc2)c1O
- inhibition [2]: 8.6%
- Activity index [1]: 1.13
- inhibition [4]: 14.8%
- Nitric oxide release (% of LPS control) (BV-2): 88.36%

Structure (SMILES): Cc1ccc(/C=C/c2occc(=O)c2O)cc1
- inhibition [2]: 28.6%
- Activity index [1]: 0.32
- inhibition [4]: 15.1%
- Nitric oxide release (% of LPS control) (BV-2): 85.2%

— ChEMBL document CHEMBL5325414, “Novel neuroprotective pyromeconic acid derivatives with concurrent anti-Aβ deposition, anti-inflammatory, and anti-oxidation properties for treatment of Alzheimer's disease” (Eur J Med Chem, 2023)
